Assay results reported in the supplement of paper PMC10307832.

Legend:
Test in all cases: relative viability (nuclei count vs DMSO), 5 days (fraction); higher = more cells survive
BAY61-3606 + Crizotinib = compound: COC1=C(C=C(C=C1)C2=CC3=NC=CN3C(=N2)NC4=C(C=CC=N4)C(=O)N)OC [BAY61-3606] + C[C@@H](Oc1cc(-c2cnn(C3CCNCC3)c2)cnc1N)c1c(Cl)ccc(F)c1Cl [Crizotinib] (partner 1 µM)
How it was run: (§1)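 Relative viability was taken as the ratio of nuclei in treated wells to nuclei in vehicle wells. Lung cancer cell lines in 1536-well plates received compounds by pin tool one day after seeding, either one drug alone or a fixed anchor-drug dose plus five library-drug doses (not always all listed) in √10 steps. Nuclei were counted on 4× images after 5 days of treatment, and values are medians of duplicate plates.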

Doxorubicin + Vorinostat = compound: COc1cccc2c1C(=O)c1c(O)c3c(c(O)c1C2=O)C[C@@](O)(C(=O)CO)C[C@@H]3O[C@H]1C[C@H](N)[C@H](O)[C@H](C)O1 [Doxorubicin] + O=C(CCCCCCC(=O)Nc1ccccc1)NO [Vorinostat] (partner 1 µM)
How it was run: as §1

BAY61-3606 + Palbociclib = compound: COC1=C(C=C(C=C1)C2=CC3=NC=CN3C(=N2)NC4=C(C=CC=N4)C(=O)N)OC [BAY61-3606] + CC(=O)c1c(C)c2cnc(Nc3ccc(N4CCNCC4)cn3)nc2n(C2CCCC2)c1=O [Palbociclib] (partner 0.5 µM)
How it was run: as §1

Doxorubicin + Bortezomib = compound: COc1cccc2c1C(=O)c1c(O)c3c(c(O)c1C2=O)C[C@@](O)(C(=O)CO)C[C@@H]3O[C@H]1C[C@H](N)[C@H](O)[C@H](C)O1 [Doxorubicin] + CC(C)C[C@H](NC(=O)[C@H](Cc1ccccc1)NC(=O)c1cnccn1)B(O)O [Bortezomib] (partner 0.002 µM)
How it was run: as §1

Cell Line	relative viability (BAY61-3606 + Crizotinib; first compound 0.02 µM)	relative viability (BAY61-3606 + Crizotinib; first compound 0.2 µM)	relative viability (BAY61-3606 + Crizotinib; first compound 0.6325 µM)	relative viability (BAY61-3606 + Crizotinib; first compound 2 µM)	relative viability (Doxorubicin + Vorinostat; first compound 0.001 µM)	relative viability (Doxorubicin + Vorinostat; first compound 0.003162 µM)	relative viability (Doxorubicin + Vorinostat; first compound 0.01 µM)	relative viability (Doxorubicin + Vorinostat; first compound 0.03162 µM)	relative viability (Doxorubicin + Vorinostat; first compound 0.1 µM)	relative viability (BAY61-3606 + Palbociclib; first compound 0.02 µM)	relative viability (BAY61-3606 + Palbociclib; first compound 0.06325 µM)	relative viability (BAY61-3606 + Palbociclib; first compound 0.2 µM)	relative viability (BAY61-3606 + Palbociclib; first compound 0.6325 µM)	relative viability (BAY61-3606 + Palbociclib; first compound 2 µM)	relative viability (Doxorubicin + Bortezomib; first compound 0.001 µM)	relative viability (Doxorubicin + Bortezomib; first compound 0.003162 µM)	relative viability (Doxorubicin + Bortezomib; first compound 0.01 µM)	relative viability (Doxorubicin + Bortezomib; first compound 0.03162 µM)	relative viability (Doxorubicin + Bortezomib; first compound 0.1 µM)	relative viability (BAY61-3606 + Crizotinib; first compound 0.06325 µM)
LCLC-97TM1	0.262	0.341	0.395	0.262	0.785	0.909	0.73	0.707	0.703	0.241	0.222	0.281	0.218	0.301	0.528	0.434	0.265	0.151	0.0908	–
LCLC-103H	1.07	1.02	1.08	1.02	0.775	0.823	0.779	0.811	0.902	0.473	0.508	0.449	0.462	0.481	1.07	1.12	1.08	1.14	1.12	0.997
LOU-NH91	0.72	0.77	0.777	0.662	–	0.892	0.853	0.615	0.331	0.547	0.503	0.529	0.508	0.557	0.493	0.477	0.479	0.487	0.407	0.722
LU99A	0.562	0.555	0.484	0.305	0.518	0.474	0.442	0.409	0.519	0.448	0.395	0.451	0.417	0.271	1.1	1.23	1.14	0.764	0.5	0.468
LXF-289	0.753	0.795	0.821	0.81	0.703	0.787	0.745	0.805	0.744	0.533	0.587	0.62	0.677	0.665	1.01	1.02	0.998	0.996	0.926	0.82
NCI-H23	0.53	0.505	0.486	0.264	0.551	0.808	0.654	0.464	0.363	0.646	0.484	0.549	0.509	0.371	–	1.06	0.93	0.514	0.567	0.283
NCI-H322M	0.901	0.853	0.842	1.01	1.01	0.836	0.85	0.769	0.57	0.522	0.47	0.511	0.49	0.447	1.45	1.21	1.28	1.27	1.18	0.756
NCI-H441	0.668	0.833	0.771	0.414	0.87	0.962	0.75	0.279	0.372	0.249	0.264	0.256	0.231	0.192	–	0.452	0.392	0.295	0.315	0.788
NCI-H460	0.952	0.913	0.846	0.182	0.654	0.639	0.492	0.063	0.0329	0.171	0.126	0.256	0.257	0.086	0.981	0.964	0.244	0.0223	0.0093	0.72
NCI-H520	0.881	0.871	0.948	0.593	0.757	0.733	0.788	0.596	0.564	0.218	0.246	0.254	0.265	0.22	0.575	0.581	0.46	0.361	0.269	0.782
NCI-H647	1.09	0.963	1.03	0.506	0.546	0.671	0.387	0.132	0.189	0.386	0.358	0.328	0.401	0.235	1.03	1.04	0.907	0.213	0.111	1.1
NCI-H650	0.725	0.701	0.669	0.47	0.553	0.505	0.422	0.355	0.432	0.34	0.337	0.371	0.365	0.306	0.862	0.688	0.914	0.697	0.511	0.331
NCI-H661	0.914	–	0.984	0.957	0.737	0.82	0.695	0.577	0.495	0.408	0.378	0.413	0.42	0.477	0.919	0.849	0.836	0.776	0.865	0.806
NCI-H727	0.855	0.992	0.925	0.738	1.33	1.09	–	1.13	1.19	0.737	0.588	0.637	0.635	0.631	0.794	0.985	0.656	0.658	0.613	0.706
NCI-H838	0.82	0.814	0.866	0.398	0.783	0.737	0.714	0.544	0.435	0.233	0.2	0.22	0.247	0.207	0.89	1.03	0.967	0.384	0.17	0.661
NCI-H1355	1.08	1.05	1.07	0.81	0.604	0.602	0.631	0.599	0.625	0.444	0.404	0.398	0.454	0.335	1.08	1.32	1.14	1.28	1.29	1.04
